The record followed here is patent US9840515B2, “Protein kinase D inhibitors” (University of Pittsburgh—Of the Commonwealth System of …, priority 2010, dated 2017).

Data set [1] has as its target T1, purified recombinant human PKD1 (Homo sapiens, UniProt Q15139).
T1 sequence (Q15139 1-912): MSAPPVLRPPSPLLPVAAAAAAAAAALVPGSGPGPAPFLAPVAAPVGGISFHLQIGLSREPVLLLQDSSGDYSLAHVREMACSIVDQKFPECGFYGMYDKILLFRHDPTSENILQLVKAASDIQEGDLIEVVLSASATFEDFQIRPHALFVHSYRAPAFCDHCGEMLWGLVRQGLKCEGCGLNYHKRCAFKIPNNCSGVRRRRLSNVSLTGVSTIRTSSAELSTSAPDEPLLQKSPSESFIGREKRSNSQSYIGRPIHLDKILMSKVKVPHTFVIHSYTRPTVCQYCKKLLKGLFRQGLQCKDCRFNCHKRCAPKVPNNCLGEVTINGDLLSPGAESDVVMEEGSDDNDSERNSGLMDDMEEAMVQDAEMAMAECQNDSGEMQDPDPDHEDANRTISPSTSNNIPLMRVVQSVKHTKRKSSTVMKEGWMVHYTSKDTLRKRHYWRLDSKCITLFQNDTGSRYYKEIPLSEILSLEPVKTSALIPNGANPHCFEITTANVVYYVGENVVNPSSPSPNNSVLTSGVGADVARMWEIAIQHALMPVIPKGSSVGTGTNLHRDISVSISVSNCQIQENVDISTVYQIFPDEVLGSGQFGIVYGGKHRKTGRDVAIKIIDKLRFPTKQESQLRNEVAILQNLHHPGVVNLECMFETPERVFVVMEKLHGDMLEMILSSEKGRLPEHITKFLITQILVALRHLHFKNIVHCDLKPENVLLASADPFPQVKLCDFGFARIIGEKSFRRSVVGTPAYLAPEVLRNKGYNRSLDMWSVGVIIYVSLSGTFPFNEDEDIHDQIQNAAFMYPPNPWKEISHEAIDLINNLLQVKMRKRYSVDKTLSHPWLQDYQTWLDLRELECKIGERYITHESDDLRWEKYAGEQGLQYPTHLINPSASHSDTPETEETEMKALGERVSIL
Put plainly: radiometric PKD kinase activity assay. The data set is classed as biochemical. Here is the method: The radiometric PKD kinase assay was carried out by co-incubating 0.5 μCi γ-32P-ATP (PerkinElmer, Boston, Mass.), 20 μM ATP, 50 ng purified recombinant human PKD (PKD1, PKD2, PKD3) proteins, and 2.5 μg Syntide-2 (Sigma) in 50 μl kinase buffer that contains 50 mM Tris-HCl, pH 7.5, 4 mM MgCl2, 10 mM β-mercaptoethanol. The reaction was carried out under sub-saturation conditions, such that the initial rate was within linear kinetic range. The reaction mixture was incubated at 30° C. for 10 min, followed by spotting 25 μl of the mix onto a Whatman P81 filter paper (Whatman Inc, Clifton, N.J.). The filter papers were then washed three times in 0.5% phosphoric acid, air-dried, and counted using a Beckman LS6500 multi-purpose scintillation counter (Beckman, Fullerton, Calif.).

For the next data set, the target named is T2, PKD1 (Homo sapiens, UniProt Q15139).
T2 sequence (Q15139 1-912): T1 sequence (Q15139 1-912)
Kind of data set: IMAP-FP PKD1 assay. The data set is classed as biochemical. From the text: See Sharlow, E. R., et. al., J Biol Chem, 283: 33516-33526, (2008). The assay established the concentration of inhibitor that is required to reduce PKD1 activity by 50% (IC50), as shown in Table 2 above.

Where [2] appears, read: read-out: IC50 radiometric PKD1.

Structures can show the parent of a compound that is named as a salt. Where two headings read alike, the source gives them in different places. A value given as a limit tells only on which side of the number the result lay.

What is called IC50 is the concentration that inhibits the measured activity by half. What is called melting point is the temperature, or range, at which the solid turns liquid. On to `C=CCOc1ccc2oc3c(c2c1)CCCNC3=O` [kb-NB77-84, 7-Allyloxy-2,3,4,5-tetrahydro-[1]benzoxolo[2,3-c]azepin-1-one], for which the melting point fell in the range of 198 to 200 °C. Further, the IC50 in data set [1] (radiometric kinase activity assay, in vitro, read-out: IC50 PKD1) stood at 0.123 µM.

Molecule `O=C1NCCc2c1[nH]c1ccc(OCc3ccccc3)cc21` [kb-NB123-52, 2,3,4,9-Tetrahydro-6-benzyloxy-1H-pyrido[3,4-b]indol-1-one] came in with a melting point of 208 to 210 °C. Further, the “IC50 IMAP-FP PKD1” value on PKD1 is on record as “not inhibitory”. As to `COc1nc(O)c2sc3c(c2n1)SCCNC3=O` [kmg-NB5-15A, 4-Hydroxy-2-methoxy-7H,8H,9H-1,4-thiazepino[7′,6′-5,4]thiopheno[3,2-d]pyrimidin-6-one], the melting point was 295 °C (dec.). Further, in data set [1] (setting [2]), the IC50 is greater than 30 µM. The corresponding values for `Oc1ccc2sc3c(c2c1)SCCNC3` [kb-NB165-83, 2,3,4,5-Tetrahydro-9-hydroxy-[1]benzothieno[2,3-f]-1,4-thiazepine] are 182 to 184 °C (dec.) and 16.4 µM.

Molecule `NCCN1CCSc2c(sc3ccc(O)cc23)C1=O` [kb-NB165-75, 2,3-Dihydro-4-(2-aminoethyl)-9-hydroxy-[1]benzothieno[2,3-f]-1,4-thiazepin-5-one] returned a melting point of 250 to 254 °C. In data set [1] (setting [2]), the IC50 is 0.757 µM. With `O=C1NCCCc2c1oc1cc(Cl)c(O)c(Cl)c21` [kb-NB96-43, 6,8-Dichloro-7-hydroxy-2,3,4,5-tetrahydro-[1]benzoxolo[2,3-c]azepin-1-one], the melting point was in the range of 298 to 301 °C. Besides, the “IC50 IMAP-FP PKD1” value at PKD1 is “not inhibitory”.

Molecule `C=CCOc1ccc2oc3c(c2c1Cl)CCCNC3=O` [kb-NB96-50, 7-Allyloxy-6-chloro-2,3,4,5-tetrahydro-[1]benzoxolo[2,3-c]azepin-1-one] displayed a melting point of 192 to 194 °C. Further, the “IC50 IMAP-FP PKD1” value against PKD1 is “not inhibitory”. In turn, `CN1CCSc2c(sc3ccc(O)cc23)C1=O` [kb-NB165-17, 2,3-Dihydro-4-methyl-9-hydroxy-[1]benzothieno[2,3-f]-1,4-thiazepin-5-one] registered a melting point of 265 to 268 °C. Also, the IC50 in data set [1] (setting [2]) was 0.45 ± 0.05 µM. `O=C1NCCSc2c1sc1ccc(O)c(Br)c21` [kb-NB184-52, 3,4-Dihydro-9-hydroxy-10-bromo-[1]benzothieno[2,3-f]-1,4-thiazepin-5(2H)-one]: the melting point was 235 to 238 °C (dec.). Moreover, the IC50 in data set [1] (setting [2]) came to 0.048 µM.

As for `O=C1NCCSc2c1sc1ccc(N=C=S)cc21` [mcf292-05, 3,4-Dihydro-9-isothiocyanato-[1]benzothieno[2,3-f]-1,4-thiazepin-5(2H)-one], the melting point was 253 to 253.3 °C. Moreover, the IC50 in data set [1] (setting [2]) was 2.77 µM.

The molecule `O=C1NCCC(=NOCc2ccccc2)c2c1oc1ccc(O)cc21` [kb-NB142-10, 7-Hydroxy-5-[(phenylmethoxy)azamethylene]-2H,3H,4H-azepino[5,6-d]benzo[b]furan-1-one] had a melting point of 103 to 110 °C. On PKD1, the “IC50 IMAP-FP PKD1” value is reported as “not inhibitory”. On the same counts, the results for `CC(=O)Nc1ccc2[nH]c3c(c2c1)CCNC3=O` [kb-NB123-93, N-(2,3,4,9-Tetrahydro-1-oxo-1H-pyrido[3,4-b]indol-6-yl)-acetamide] are greater than 300 °C and “not inhibitory”. For `O=C1NCCCc2c1[nH]c1ccc(OCc3ccccc3)cc21` [kb-NB123-53, 3,4,5,10-Tetrahydro-7-benzyloxy-azepino[3,4-b]indol-1(2H)-one], at PKD1, the “IC50 IMAP-FP PKD1” value is recorded as “not inhibitory”. In the case of `COc1ccc2sc3c(c2c1)SCCN(C)C3=O` [kb-NB165-16, 2,3-Dihydro-4-Methyl-9-methoxy-[1]benzothieno[2,3-f]-1,4-thiazepin-5(2H)-one], the melting point is 160 to 161 °C. In addition, the half-maximal inhibitory concentration (IC50) in data set [1] (setting [2]) turned out to be 4.57 ± 0.78 µM. `CC(=O)Nc1ccc2[nH]c3c(c2c1)CCCNC3=O` [kb-NB123-94] displayed a melting point greater than 300 °C. In addition, the “IC50 IMAP-FP PKD1” value against PKD1 was “not inhibitory”. Molecule `Nc1ccc2sc3c(c2c1)SCCNC3=O` [mcf292-03, 3,4-Dihydro-9-amino-[1]benzothieno[2,3-f]-1,4-thiazepin-5(2H)-one] had a melting point of 198.6 to 199 °C. For the same molecule, in data set [1] (setting [2]), the IC50 came to 3.17 µM. Take `c1ccc(COc2ccc3sc4c(c3c2)SCCNC4)cc1` [kb-NB165-81, 2,3,4,5-Tetrahydro-9-benzyloxy-[1]benzothieno[2,3-f]-1,4-thiazepine]: the melting point lay within 144 to 145 °C. Further, the IC50 in data set [1] (setting [2]) was determined as 39.6 µM. On to `Cc1ccc(S(=O)(=O)NN=C2CCNC(=O)c3oc4ccc(O)cc4c32)cc1` [kb-NB142-11, 7-Hydroxy-5-({[(4-methylphenyl)sulfonyl]amino}azamethylene)-2H,3H,4H-azepino[5,6-d]benzo[b]furan-1-one], for which the melting point lay within 220 to 224 °C. On PKD1, this molecule yielded an IC50 of 38.2 ± 1.17 µM. As to `O=C1NCCCc2c1oc1cc(Cl)c(O)cc21` [kb-NB96-47-5, 8-Chloro-7-hydroxy-2,3,4,5-tetrahydro-[1]benzoxolo[2,3-c]azepin-1-one], the melting point fell in the range of 327 to 332 °C. Further, the IC50 against PKD1 is greater than 100 µM. `O=C1NCCCSc2c1sc1ccc(OCc3ccccc3)cc21` [kb-NB165-89, 2,3,4,5-Tetrahydro-10-benzyloxybenzo[b]thieno[2,3-f]-1,5-thiazocin-6-one]: the melting point was 198 to 199 °C. The IC50 in data set [1] (setting [2]) amounted to 21.7 µM. Regarding `Oc1ccc2oc3c(c2c1)CCCN1CCN=C31` [kb-NB165-15, 5H,6H,7H-Benzo[b]2-imidazolino[1′,2′-7,1]azepino[5,6-d]furan-9-ol], the melting point is 230 to 232 °C (dec.). Also, the “IC50 PKD1” value in data set [1] (radiometric kinase activity assay, in vitro) is “No inhibition”.

On to `O=C1NCCSc2c1sc1cnc(O)nc21` (as salt: hydrochloride) [kmg-NB4-69A, 2-Hydroxy-7H,8H,9H-1,4-thiazepino[7′,6′-5,4]thiopheno[3,2-d]pyrimidin-6-one], for which the melting point is 335.9 °C (dec.). As to `COc1ccc2c(c1)c1c([s+]2[O-])C(=O)NCCS1` (stereo not drawn) [kb-NB184-25, 3,4-Dihydro-9-methoxy-6-oxide-[1]benzothieno[2,3-f]-1,4-thiazepin-5(2H)-one], the melting point lay within 284 to 287 °C. In data set [1] (setting [2]), the IC50 stood at 1.08 µM. `COc1ccc2oc3c(c2c1)CCN(C)C3=O` [kb-NB123-37, 6-Methoxy-2-methyl-2,3,4-trihydrobenzo[b]pyridino[4,3-d]furan-1-one] returned a melting point of 168 to 172 °C. For the molecule `CC(C)(C)[Si](C)(C)Oc1ccc2oc3c(c2c1)CCCNC3=O`, the melting point lay within 209 to 212 °C. As for `COC(=O)c1sc2ccc(OC)cc2c1NCCCO` [kb-NB184-80, Methyl 3-(3-hydroxypropylamino)-5-methoxybenzo[b]thiophene-2-carboxylate], the melting point is 116 to 120 °C. The “IC50 radiometric PKD1” value in data set [1] was “not inhibitory”. Consider `O=C1NCCSc2c1[s+]([O-])c1ccc(O)cc21` (stereo not drawn) [kb-NB184-22, 3,4-Dihydro-9-hydroxy-6-oxide-[1]benzothieno[2,3-f]-1,4-thiazepin-5(2H)-one], for which the melting point is 160 to 163 °C (dec.). `O=C(CCl)Nc1ccc2sc3c(c2c1)SCCNC3=O` [mcf292-09, 3,4-Dihydro-9-(2-chloroacetamido)-[1]benzothieno[2,3-f]-1,4-thiazepin-5(2H)-one]: the melting point is 229 to 230 °C (dec.). In addition, the IC50 in data set [1] (setting [2]) was 1.5 µM.
